Data published in ChEMBL document CHEMBL5532741, “Novel 2,4-Dichloro-5-sulfamoylbenzoic Acid Oxime Esters: First Studies as Potential Human Carbonic Anhydrase Inhibitors” (ACS Med Chem Lett, 2024).
Activity calls are given as the source filed them. The rule behind the calls is not given here.

What was measured:
MDA-MB-231 [1] = experiment: Antiproliferative activity against human MDA-MB-231 cells measured after 72 hrs by cell counting kit 8 method; assay type: functional, cell-based; details: MDA-MB-231, 72 h
MDA-MB-231 [2] = experiment: Antiproliferative activity against human MDA-MB-231 cells at high concentration measured after 72 hrs by cell counting kit 8 method; assay type: functional, cell-based
Homo sapiens [3] = organism: Homo sapiens; experiment: Selectivity index, ratio of Ki for recombinant human CA9 to Ki for recombinant human CA2
Homo sapiens [4] = organism: Homo sapiens; experiment: Selectivity index, ratio of Ki for recombinant human CA12 to Ki for recombinant human CA2

## NS(=O)(=O)c1ccc(NC(=O)Nc2ccc(F)cc2)cc1 [SLC-0111]
MDA-MB-231 [1]
  IC50: 18.2 µM

## COc1ccc(/C=N/OC(=O)c2cc(S(N)(=O)=O)c(Cl)cc2Cl)c(OC)c1OC
MDA-MB-231 [1]
  IC50: 113 µM

## NS(=O)(=O)c1cc(C(=O)O/N=C/c2ccccc2)c(Cl)cc1Cl
MDA-MB-231 [2]
  Activity: inactive

## NS(=O)(=O)c1cc(C(=O)O)c(Cl)cc1Cl
Homo sapiens [3]
  Ratio Ki: 7.9
Homo sapiens [4]
  Ratio Ki: 22.7

## COc1cccc(OC)c1/C=N/OC(=O)c1cc(S(N)(=O)=O)c(Cl)cc1Cl
MDA-MB-231 [1]
  IC50: 108 µM
